The subject of series [1] is HCT116 MTAP-deleted cell lines. The series is described as follows: Cell viability assay for HCT116 isogenic pair (CellTitre-Glo, 7 days). The note with it: Homo sapiens, HCT-116, 168 h, 7 days of treatment, cell line not given. Type of series: cell-based. The method, boiled down:
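HCT116 WT or MTAP-deleted cells, 100 per well, seeded onto pre-spotted PRMT5 inhibitor dose series in RPMI 1640/10% heat-inactivated FBS and grown 7 days at 37° C, 5% CO2. CellTiter-Glo luminescence then read; CC50 (nM) from 4-parameter logistic fit.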

Series [2] has as its system LU99. As to the kind of experiment: Cell viability assay for additional cell lines: LU99. Type of series: cell-based. The following applies: for GI50: Homo sapiens, Lu-99, 216 h, 9-day treatment, average of n=2, read-out: MTAP-Deleted GI50. The procedure: (§1) Some Compounds of the Disclosure were tested in Calu-6 (Vendor: ATCC; Cat #HTB-56; Description: lung, adenocarcinoma), LU99 (Vendor: JCRB; Cat #JCRB0080; Description: non-small cell lung cancer), SW780 (Vendor: ATCC; Cat #CRL-2169; Description: bladder urothelial carcinoma), BxPC-3 (Vendor: ATCC; Cat #CRL-1687; Description: pancreatic adenocarcinoma), Panc-1 (Vendor: ATCC; Cat #CRL-1469 Description: pancreatic adenocarcinoma), AsPC-1 (Vendor: ATCC; Cat #CRL-1682; Description: pancreatic adenocarcinoma), Calu-6 (Vendor: ATCC; Cat #HTB-56; Description: non-small cell lung cancer), and U-2 OS (Vendor: ATCC; Cat #HTB-96; Description: osteosarcoma), cellular viability assays according to the general protocol. Seeded cells into 96-well plate and incubated overnight. Seeded an additional 10 wells per cell line in an additional 96-well plate for assessing Time Zero luminescence and incubated overnight. To treatment plates, added compounds into each well using Tecan D300e dispenser (nine three-fold dilutions starting at 10 μM) and incubated for 9 days. Time Zero (no compound treatment, luminescence assessed on day 1) and 9-day treatment (luminescence assessed on day 10) plates were assessed using the same CellTiter-Glo® substrate protocol. Thawed CellTiter-Glo® Buffer and lyophilized CellTiter-Glo® substrate and equilibrated to room temperature prior to use. The DMSO concentration was normalized to 0.137%. Transferred 100 ml CellTiter-Glo® Buffer into amber bottle containing CellTiter-Glo® substrate to reconstitute the lyophilized enzyme/substrate mixture. For Time Zero and 9-day treatment plates, removed all plating media. Added 100 μl fresh media/well. Added 100 μl CellTiter-Glo® Reagent per well. Mixed contents for 10 min on an orbital shaker to lyse cells. Recorded luminescence with Perkin Elmer Envision 2105 machine. Analyzed the data with GraphPad software. Potency fold difference is defined as GI50 (AMG193)/GI50 (Ca-47) for the MTAP^del cell line of interest. The structure of AMG193 is as follows.

The subject of series [3] is SW780. The series is described as follows: Cell viability assay for additional cell lines: SW780. Format: cell-based. The note with it: for GI50: Homo sapiens, 216 h, 9-day treatment, average of n=2, read-out: MTAP-Deleted GI50. The procedure:
as §1

Series [4] relates to BxPC-3. The series is described as follows: Cell viability assay for additional cell lines: BxPC-3. Type of series: cell-based. The note with it: for GI50: Homo sapiens, 216 h, 9-day treatment, average of n=2, read-out: MTAP-Deleted GI50. The procedure: as §1
Series [5] has as its system Panc-1. As to the kind of experiment: Cell viability assay for additional cell lines: Panc-1. Type of series: cell-based. The note with it: for GI50: Homo sapiens, 216 h, 9-day treatment, average of n=2, read-out: MTAP-Deleted GI50. The procedure:
as §1

Series [6] deals with AsPC-1. As to the kind of experiment: Cell viability assay for additional cell lines: AsPC-1. The following applies: Homo sapiens, ASPC1, 216 h, 9-day treatment, average of n=2, read-out: MTAP-WT GI50. Type of series: cell-based. The procedure: as §1, with “Thawed CellTiter-Glo® Buffer and lyophilized CellTiter-Glo® substrate and equilibrated to room temperature prior to use. The DMSO concentration was normalized to 0.137%. Transferred 100 ml CellTiter-Glo® Buffer into amber bottle containing CellTiter-Glo® substrate to reconstitute the lyophilized enzyme/substrate mixture. For Time Zero and 9-day treatment plates, removed all plating media. Added 100 μl fresh media/well. Added 100 μl CellTiter-Glo® Reagent per well. Mixed contents for 10 min on an orbital shaker to lyse cells.” left out, “Potency fold difference is defined as GI50 (AMG193)/GI50 (Ca-47) for the MTAP^del cell line of interest. The structure of AMG193 is as follows.” left out

Series [7] relates to Calu-6. As to the kind of experiment: Cell viability assay for additional cell lines: Calu-6. Type of series: cell-based. The note with it: Homo sapiens, 216 h, 9-day treatment, average of n=2, read-out: MTAP-WT GI50. The method, then:
as §1, with “Thawed CellTiter-Glo® Buffer and lyophilized CellTiter-Glo® substrate and equilibrated to room temperature prior to use. The DMSO concentration was normalized to 0.137%. Transferred 100 ml CellTiter-Glo® Buffer into amber bottle containing CellTiter-Glo® substrate to reconstitute the lyophilized enzyme/substrate mixture. For Time Zero and 9-day treatment plates, removed all plating media. Added 100 μl fresh media/well. Added 100 μl CellTiter-Glo® Reagent per well. Mixed contents for 10 min on an orbital shaker to lyse cells.” left out, “Potency fold difference is defined as GI50 (AMG193)/GI50 (Ca-47) for the MTAP^del cell line of interest. The structure of AMG193 is as follows.” left out

Series [8] relates to U-2 OS. As to the kind of experiment: Cell viability assay for additional cell lines: U-2 OS. Type of series: cell-based. The following applies: Homo sapiens, U2OS, 216 h, 9-day treatment, average of n=2, read-out: MTAP-WT GI50. The procedure: as §1, with “Thawed CellTiter-Glo® Buffer and lyophilized CellTiter-Glo® substrate and equilibrated to room temperature prior to use. The DMSO concentration was normalized to 0.137%. Transferred 100 ml CellTiter-Glo® Buffer into amber bottle containing CellTiter-Glo® substrate to reconstitute the lyophilized enzyme/substrate mixture. For Time Zero and 9-day treatment plates, removed all plating media. Added 100 μl fresh media/well. Added 100 μl CellTiter-Glo® Reagent per well. Mixed contents for 10 min on an orbital shaker to lyse cells.” left out, “Potency fold difference is defined as GI50 (AMG193)/GI50 (Ca-47) for the MTAP^del cell line of interest. The structure of AMG193 is as follows.” left out

Series [9] can be described thus: Sprague-Dawley Rat PK. Type of series: in vivo. The note with it: for BPR: Blood plasma ratio; for clearance / half-life / Vd: IV 0.33 mg/Kg; for clearance: plasma clearance, read-out: Observed CLp (converted); for Fold IVIVc: [Observed CLp/[BPR]/[Predicted Hepatocyte CL]; for half-life / Vd: plasma; for Vd: read-out: Vss. The source says: The following abbreviations are defined as follows for table 5. BPR: Blood plasma ratio, CLp: plasma clearance.
Cell viability assay data for LU99, SW780, BxPC-3, Panc-1, AsPC-1, Calu-6 and U-2 OS for AMG-193 and example Ca-47 are provided in Table 4. The following abbreviations are defined as follows for table 5. BPR: Blood plasma ratio, CLp: plasma clearance. Fold IVIVc=[Observed CLp/[BPR]/[Predicted Hepatocyte CL]

As for `Nc1nc2cnc(C(=O)N3CCOC[C@@H]3c3ccc(C(F)(F)F)cc3)cc2c2c1COC2` [AMG193, reference compound], half-maximal cytotoxicity in series [1] (CC50) was put at 69 nM. The GI50 (usually the concentration that inhibits growth by half) was 45 nM in series [2]; 96 nM in series [3]; 68 nM in series [4]; 517 nM in [5]; greater than 10000 nM in [6]; 7000 nM in series [7]. Also, the GI50 in series [8] turned out to be 9360 nM. For the same molecule, in series [9], the BPR came to 0.95. The clearance in series [9] was 37.7 mL/min/kg. Besides, the “Fold IVIVc” value in series [9] is given as 1x. In series [9], the half-life (as a rule, the time in which the quantity being followed falls by half) was 1.1 h. Moreover, the Vd in series [9] was 1.82 L/kg.
Regarding `Nc1nc2cnc(C(=O)N3CCC[C@@H]4Oc5cc(C(F)(F)F)cc(F)c5[C@@H]43)cc2c2c1COC2` [Example Ca-47, (4-amino-1,3-dihydrofuro[3,4-c][1,7]naphthyridin-8-yl)((4aS,9bS)-9-fluoro-7-(trifluoromethyl)-3,4,4a,9b-tetrahydrobenzofuro[3,2-b]pyridin-1(2H)-yl)methanone], the CC50 (as a rule, the concentration that lowers cell viability or growth by half) in series [1] came out at 14 nM. Also, the Potency fold difference came out at 5 in series [2] (GI50 (AMG193)/GI50 (Ca-47)), 5.6 in series [3] (GI50 (AMG193)/GI50 (Ca-47)), 4.3 in series [4] (GI50 (AMG193)/GI50 (Ca-47)) and 5.9 in series [5] (GI50 (AMG193)/GI50 (Ca-47)). In addition, the GI50 was determined as 9 nM in series [2]; 17 nM in series [3]; 16 nM in series [4]; 87 nM in series [5]; 2800 nM in series [6]; 1600 nM in [7]. For the same molecule, in series [8], the GI50 turned out to be 2300 nM. In [9], the BPR is listed as 0.89. Moreover, the clearance in series [9] was 14.2 mL/min/kg. For the same molecule, the “Fold IVIVc” value in series [9] is 0.37x. For the same molecule, in [9], the half-life is 2.5 h. In addition, the Vd in [9] worked out at 2.08 L/kg.

The values are drawn from US20250154172A1, “PRMT5 INHIBITORS AND USES THEREOF” (Gilead Sciences, Inc., priority 2023, published 2025).
